Assay results from patent publication US10092620B2, “Uses of cyclic peptides for treating and preventing atherosclerosis” (THE SCRIPPS RESEARCH INSTITUTE, priority 2013, dated 2018).
Non-standard residues stand in square brackets, D forms with d. 4Pal = N[C@@H](Cc1ccncc1)C(=O)O; Aoc(2) = CCCCCC[C@H](N)C(=O)O; Orn = NCCC[C@H](N)C(=O)O

system: HDL in human plasma; assay: pre-beta HDL ELISA assay: remodeling HDL in human plasma in vitro; assay type: biochemical; conditions: pre-beta HDL ELISA
Procedure: First, various cyclic peptides, including the majority of compounds shown in FIG. 2, were assessed for activities for remodeling HDL in human plasma in vitro. Unlike western blot which was used to generate data shown in FIG. 2, here a pre-beta HDL ELISA assay was used to measure pre-beta HDL levels. Results from the assay are shown in Table 1, which lists the peptides in the order of their activities in remodeling HDL.

Substance | Pre-beta HDL generated (normalized level)
2 (cyclo([dW]L[dW]K[dD]Q[dE]K); SMILES CC(C)C[C@@H]1NC(=O)[C@@H](Cc2c[nH]c3ccccc23)NC(=O)[C@H](CCCCN)NC(=O)[C@@H](CCC(=O)O)NC(=O)[C@H](CCC(N)=O)NC(=O)[C@@H](CC(=O)O)NC(=O)[C@H](CCCCN)NC(=O)[C@@H](Cc2c[nH]c3ccccc23)NC1=O) [compound 2] | 0.10
5 (cyclo([dF]W[dW]Y[dQ]H[dH]Q); SMILES NC(=O)CC[C@@H]1NC(=O)[C@@H](Cc2c[nH]cn2)NC(=O)[C@H](Cc2c[nH]cn2)NC(=O)[C@@H](CCC(N)=O)NC(=O)[C@H](Cc2ccc(O)cc2)NC(=O)[C@@H](Cc2c[nH]c3ccccc23)NC(=O)[C@H](Cc2c[nH]c3ccccc23)NC(=O)[C@@H](Cc2ccccc2)NC1=O) [compound 5] | 1.29
6 (cyclo(L[dW]L[dW]L[dR]K[dE]); SMILES CC(C)C[C@@H]1NC(=O)[C@@H](Cc2c[nH]c3ccccc23)NC(=O)[C@H](CC(C)C)NC(=O)[C@@H](Cc2c[nH]c3ccccc23)NC(=O)[C@H](CC(C)C)NC(=O)[C@@H](CCC(=O)O)NC(=O)[C@H](CCCCN)NC(=O)[C@@H](CCCNC(=N)N)NC1=O) [compound 6] | 0.36
8 (cyclo([dW]L[dW]K[dD]N[dD]K); SMILES CC(C)C[C@@H]1NC(=O)[C@@H](Cc2c[nH]c3ccccc23)NC(=O)[C@H](CCCCN)NC(=O)[C@@H](CC(=O)O)NC(=O)[C@H](CC(N)=O)NC(=O)[C@@H](CC(=O)O)NC(=O)[C@H](CCCCN)NC(=O)[C@@H](Cc2c[nH]c3ccccc23)NC1=O) [compound 8] | 0.26
9 (cyclo([dW]L[dW]R[dD]N[dD]K); SMILES CC(C)C[C@@H]1NC(=O)[C@@H](Cc2c[nH]c3ccccc23)NC(=O)[C@H](CCCCN)NC(=O)[C@@H](CC(=O)O)NC(=O)[C@H](CC(N)=O)NC(=O)[C@@H](CC(=O)O)NC(=O)[C@H](CCCNC(=N)N)NC(=O)[C@@H](Cc2c[nH]c3ccccc23)NC1=O) [compound 9] | 0.47
10 (cyclo([dW]L[dW]K[dD]Q[dD]K); SMILES CC(C)C[C@@H]1NC(=O)[C@@H](Cc2c[nH]c3ccccc23)NC(=O)[C@H](CCCCN)NC(=O)[C@@H](CC(=O)O)NC(=O)[C@H](CCC(N)=O)NC(=O)[C@@H](CC(=O)O)NC(=O)[C@H](CCCCN)NC(=O)[C@@H](Cc2c[nH]c3ccccc23)NC1=O) [compound 10] | 0.12
12 (cyclo([dW]L[dW]H[dE]N[dE]K); SMILES CC(C)C[C@@H]1NC(=O)[C@@H](Cc2c[nH]c3ccccc23)NC(=O)[C@H](CCCCN)NC(=O)[C@@H](CCC(=O)O)NC(=O)[C@H](CC(N)=O)NC(=O)[C@@H](CCC(=O)O)NC(=O)[C@H](Cc2c[nH]cn2)NC(=O)[C@@H](Cc2c[nH]c3ccccc23)NC1=O) [compound 12] | 0.07
13 (cyclo([dW]L[dW][Orn][dE]Q[dE][Orn]); SMILES CC(C)C[C@@H]1NC(=O)[C@@H](Cc2c[nH]c3ccccc23)NC(=O)[C@H](CCCN)NC(=O)[C@@H](CCC(=O)O)NC(=O)[C@H](CCC(N)=O)NC(=O)[C@@H](CCC(=O)O)NC(=O)[C@H](CCCN)NC(=O)[C@@H](Cc2c[nH]c3ccccc23)NC1=O) [compound 13] | 0.46
15 (cyclo(Y[dL]W[dY]K[dH]A[dE]); SMILES CC(C)C[C@H]1NC(=O)[C@H](Cc2ccc(O)cc2)NC(=O)[C@@H](CCC(=O)O)NC(=O)[C@H](C)NC(=O)[C@@H](Cc2c[nH]cn2)NC(=O)[C@H](CCCCN)NC(=O)[C@@H](Cc2ccc(O)cc2)NC(=O)[C@H](Cc2c[nH]c3ccccc23)NC1=O) [compound 15] | 0.51
16 (cyclo(Y[dW]E[dL]Y[dS]K[dQ]); also: 2nd residue stated as DL-residue) [compound 16] | 0.09
17 (cyclo(Y[dW]D[dS]K[dH]); SMILES NCCCC[C@@H]1NC(=O)[C@@H](CO)NC(=O)[C@H](CC(=O)O)NC(=O)[C@@H](Cc2c[nH]c3ccccc23)NC(=O)[C@H](Cc2ccc(O)cc2)NC(=O)[C@@H](Cc2c[nH]cn2)NC1=O) [compound 17] | 0.08
19 (cyclo([dW]L[dW][Orn][dE]N[dE][Orn]); SMILES CC(C)C[C@@H]1NC(=O)[C@@H](Cc2c[nH]c3ccccc23)NC(=O)[C@H](CCCN)NC(=O)[C@@H](CCC(=O)O)NC(=O)[C@H](CC(N)=O)NC(=O)[C@@H](CCC(=O)O)NC(=O)[C@H](CCCN)NC(=O)[C@@H](Cc2c[nH]c3ccccc23)NC1=O) [compound 19] | 0.36
20 (cyclo([dW]L[dL]E[dE]K[dK]N); SMILES CC(C)C[C@@H]1NC(=O)[C@@H](Cc2c[nH]c3ccccc23)NC(=O)[C@H](CC(N)=O)NC(=O)[C@@H](CCCCN)NC(=O)[C@H](CCCCN)NC(=O)[C@@H](CCC(=O)O)NC(=O)[C@H](CCC(=O)O)NC(=O)[C@@H](CC(C)C)NC1=O) [compound 20] | 0.07
22 (cyclo([dW][Aoc(2)][dW]S[dE]Q[dS][Orn]); SMILES CCCCCC[C@@H]1NC(=O)[C@@H](Cc2c[nH]c3ccccc23)NC(=O)[C@H](CCCN)NC(=O)[C@@H](CO)NC(=O)[C@H](CCC(N)=O)NC(=O)[C@@H](CCC(=O)O)NC(=O)[C@H](CO)NC(=O)[C@@H](Cc2c[nH]c3ccccc23)NC1=O) [compound 22] | 0.13
23 (cyclo([dW]L[dW]R[dE]N[dE][Orn]); SMILES CC(C)C[C@@H]1NC(=O)[C@@H](Cc2c[nH]c3ccccc23)NC(=O)[C@H](CCCN)NC(=O)[C@@H](CCC(=O)O)NC(=O)[C@H](CC(N)=O)NC(=O)[C@@H](CCC(=O)O)NC(=O)[C@H](CCCNC(=N)N)NC(=O)[C@@H](Cc2c[nH]c3ccccc23)NC1=O) [compound 23] | 0.16
24 (cyclo([dW]L[dW]H[dE]Q[dE]H); SMILES CC(C)C[C@@H]1NC(=O)[C@@H](Cc2c[nH]c3ccccc23)NC(=O)[C@H](Cc2c[nH]cn2)NC(=O)[C@@H](CCC(=O)O)NC(=O)[C@H](CCC(N)=O)NC(=O)[C@@H](CCC(=O)O)NC(=O)[C@H](Cc2c[nH]cn2)NC(=O)[C@@H](Cc2c[nH]c3ccccc23)NC1=O) [compound 24] | 0.09
25 (cyclo([dY]W[dY]K[dS]H[dA]E); SMILES C[C@H]1NC(=O)[C@H](Cc2c[nH]cn2)NC(=O)[C@@H](CO)NC(=O)[C@H](CCCCN)NC(=O)[C@@H](Cc2ccc(O)cc2)NC(=O)[C@H](Cc2c[nH]c3ccccc23)NC(=O)[C@@H](Cc2ccc(O)cc2)NC(=O)[C@H](CCC(=O)O)NC1=O) [compound 25] | 0.19
26 (cyclo([dW]L[dL][dW]K[dD]D[dK]); not fully specified (residues 5, 7)) [compound 26] | 0.36
30 (cyclo([dW]L[dW]S[dE]Q[dS]K)) [compound 30] | 0.06
34 (cyclo([dY]D[dY]W[dY]H[dA]K); not fully specified (residues 2, 4, 6, 8)) [compound 34] | 0.08
35 (cyclo([dW]L[dW]R[dE]Q[dE][Orn]); SMILES CC(C)C[C@@H]1NC(=O)[C@@H](Cc2c[nH]c3ccccc23)NC(=O)[C@H](CCCN)NC(=O)[C@@H](CCC(=O)O)NC(=O)[C@H](CCC(N)=O)NC(=O)[C@@H](CCC(=O)O)NC(=O)[C@H](CCCNC(=N)N)NC(=O)[C@@H](Cc2c[nH]c3ccccc23)NC1=O) [compound 35] | 0.02
40 (cyclo([dW]L[dW]S[dE]Q[dH]K); SMILES CC(C)C[C@@H]1NC(=O)[C@@H](Cc2c[nH]c3ccccc23)NC(=O)[C@H](CCCCN)NC(=O)[C@@H](Cc2c[nH]cn2)NC(=O)[C@H](CCC(N)=O)NC(=O)[C@@H](CCC(=O)O)NC(=O)[C@H](CO)NC(=O)[C@@H](Cc2c[nH]c3ccccc23)NC1=O) [compound 40] | 0.40
47 (cyclo(WIW[dW][dK][dH][dK][dH]); SMILES CC[C@H](C)[C@@H]1NC(=O)[C@H](Cc2c[nH]c3ccccc23)NC(=O)[C@@H](Cc2c[nH]cn2)NC(=O)[C@@H](CCCCN)NC(=O)[C@@H](Cc2c[nH]cn2)NC(=O)[C@@H](CCCCN)NC(=O)[C@@H](Cc2c[nH]c3ccccc23)NC(=O)[C@H](Cc2c[nH]c3ccccc23)NC1=O) [compound 47] | 0.79
48 (cyclo([dW]F[dY]Y[dH][Orn][dR]S); SMILES N=C(N)NCCC[C@H]1NC(=O)[C@H](CCCN)NC(=O)[C@@H](Cc2c[nH]cn2)NC(=O)[C@H](Cc2ccc(O)cc2)NC(=O)[C@@H](Cc2ccc(O)cc2)NC(=O)[C@H](Cc2ccccc2)NC(=O)[C@@H](Cc2c[nH]c3ccccc23)NC(=O)[C@H](CO)NC1=O) [compound 48] | 0.70
49 (cyclo([4Pal][dW]L[dL]H[dS]K[dK]); not fully specified; printed as c[(PA)wLlHsKk]) [compound 49] | 0.67
50 (cyclo(WIW[dR]E[dQ]E[dR]); SMILES CC[C@H](C)[C@@H]1NC(=O)[C@H](Cc2c[nH]c3ccccc23)NC(=O)[C@@H](CCCNC(=N)N)NC(=O)[C@H](CCC(=O)O)NC(=O)[C@@H](CCC(N)=O)NC(=O)[C@H](CCC(=O)O)NC(=O)[C@@H](CCCNC(=N)N)NC(=O)[C@H](Cc2c[nH]c3ccccc23)NC1=O) [compound 50] | 0.54
51 (cyclo([dF]W[dW]Y[dT]R[dH]S); SMILES C[C@H](O)[C@H]1NC(=O)[C@H](Cc2ccc(O)cc2)NC(=O)[C@@H](Cc2c[nH]c3ccccc23)NC(=O)[C@H](Cc2c[nH]c3ccccc23)NC(=O)[C@@H](Cc2ccccc2)NC(=O)[C@H](CO)NC(=O)[C@@H](Cc2c[nH]cn2)NC(=O)[C@H](CCCNC(=N)N)NC1=O) [compound 51] | 1.44
52 (cyclo([dW]F[dF]Y[dR]H[dH]S); SMILES N=C(N)NCCC[C@H]1NC(=O)[C@H](Cc2ccc(O)cc2)NC(=O)[C@@H](Cc2ccccc2)NC(=O)[C@H](Cc2ccccc2)NC(=O)[C@@H](Cc2c[nH]c3ccccc23)NC(=O)[C@H](CO)NC(=O)[C@@H](Cc2c[nH]cn2)NC(=O)[C@H](Cc2c[nH]cn2)NC1=O) [compound 52] | 0.52
